Results from ChEMBL document CHEMBL1147957, “Synthesis and antitubercular activity of phenothiazines with reduced binding to dopamine and serotonin receptors” (2007).
≈ marks a conversion by molar mass, not a printed value. Where “and” joins values, the source holds several entries; their conditions need not be identical. Identical values can stand only once.

Columns and labels:
[1] = test system: Mycobacterium tuberculosis; test: Antitubercular activity against Mycobacterium tuberculosis H37Rv by MABA assay; type: functional
[2] = target: D(2) dopamine receptor (Homo sapiens) (UniProt P14416); test: Displacement of [3H]YM091512 from dopamine D2 receptor at 10 uM
Sequence of D(2) dopamine receptor (Homo sapiens) (P14416 whole entry): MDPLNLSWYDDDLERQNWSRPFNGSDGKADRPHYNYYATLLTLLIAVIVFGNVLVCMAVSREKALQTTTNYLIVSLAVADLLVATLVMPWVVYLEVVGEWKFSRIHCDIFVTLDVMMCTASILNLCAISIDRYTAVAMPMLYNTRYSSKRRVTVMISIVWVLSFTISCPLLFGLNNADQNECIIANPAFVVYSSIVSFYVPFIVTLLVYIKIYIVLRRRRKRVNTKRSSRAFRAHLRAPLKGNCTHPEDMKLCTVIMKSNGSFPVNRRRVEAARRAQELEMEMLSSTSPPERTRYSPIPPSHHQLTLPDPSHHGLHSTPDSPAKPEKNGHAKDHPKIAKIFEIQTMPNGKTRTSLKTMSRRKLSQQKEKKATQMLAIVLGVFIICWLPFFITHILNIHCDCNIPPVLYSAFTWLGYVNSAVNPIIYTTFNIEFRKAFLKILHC

[3] = target: T1, 5-hydroxytryptamine receptor 1A (Homo sapiens) (UniProt P08908); test: Displacement of [3H]8-OH-DPAT from 5HT1A receptor at 10 uM
T1 sequence (whole entry): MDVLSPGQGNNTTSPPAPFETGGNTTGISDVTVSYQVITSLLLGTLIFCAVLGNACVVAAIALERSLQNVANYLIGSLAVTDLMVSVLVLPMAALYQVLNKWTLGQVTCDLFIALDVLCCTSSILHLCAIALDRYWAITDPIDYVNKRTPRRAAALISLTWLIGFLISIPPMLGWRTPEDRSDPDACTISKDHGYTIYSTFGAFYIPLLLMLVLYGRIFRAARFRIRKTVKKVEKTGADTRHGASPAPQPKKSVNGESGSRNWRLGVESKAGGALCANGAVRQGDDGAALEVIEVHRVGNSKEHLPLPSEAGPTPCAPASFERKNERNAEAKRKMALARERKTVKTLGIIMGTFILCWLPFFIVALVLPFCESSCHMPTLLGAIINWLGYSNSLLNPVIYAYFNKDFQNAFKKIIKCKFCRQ

[4] = target: T2, 5-hydroxytryptamine receptor 2C (Homo sapiens) (UniProt P28335); test: Displacement of [3H]mesulergine from 5HT2C receptor at 10 uM
T2 sequence (whole entry): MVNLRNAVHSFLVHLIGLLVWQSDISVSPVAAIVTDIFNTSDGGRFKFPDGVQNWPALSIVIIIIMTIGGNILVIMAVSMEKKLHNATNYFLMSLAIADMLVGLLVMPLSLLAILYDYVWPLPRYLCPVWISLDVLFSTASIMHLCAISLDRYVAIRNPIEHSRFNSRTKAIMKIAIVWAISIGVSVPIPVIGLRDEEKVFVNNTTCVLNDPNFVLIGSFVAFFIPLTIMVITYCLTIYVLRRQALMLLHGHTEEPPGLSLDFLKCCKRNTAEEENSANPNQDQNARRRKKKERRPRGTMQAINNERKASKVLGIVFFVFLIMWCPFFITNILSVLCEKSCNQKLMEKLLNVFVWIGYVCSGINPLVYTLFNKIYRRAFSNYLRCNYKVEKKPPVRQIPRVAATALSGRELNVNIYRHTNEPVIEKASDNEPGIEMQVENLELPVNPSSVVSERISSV

| SMILES | MIC [1] [µg/mL] | Activity [2] | Activity [3] | Activity [4] |
| --- | --- | --- | --- | --- |
| FC(F)(F)c1ccc2c(c1)N(Cc1ccc(CNCc3ccccc3)cc1)c1ccccc1S2 | > 20 | 13% | 0% | 0% |
| FC(F)(F)c1ccc2c(c1)N(Cc1ccc(CNc3cccc(Oc4ccccc4)c3)cc1)c1ccccc1S2 | > 20 | 26% | 0% | 0% |
| CC(CO)NCc1ccc(CN2c3ccccc3Sc3ccc(C(F)(F)F)cc32)cc1 (centres undefined) | 6.4 (≈ 14.4 µM) | 93% | 24% | 59% |
| CN1CCCC(CN2c3ccccc3Sc3cc(F)ccc32)C1 (centres undefined) | 10.8 (≈ 32.9 µM) | 87% | 7% | 89% |
| CC1CN(Cc2ccc(CN3c4ccccc4Sc4ccc(C(F)(F)F)cc43)cc2)CC(C)O1 (centres undefined) | > 20 | 75% | 0% | 7% |
| CN1CCN(Cc2ccc(CN3c4ccccc4Sc4ccc(C(F)(F)F)cc43)cc2)CC1 | 15 (≈ 31.9 µM) | 14% | 0% | 0% |
| CN(CCCN1c2ccccc2Sc2ccc(C(F)(F)F)cc21)Cc1ccccc1 | > 20 | 99% | 31% | 68% |
| FC(F)(F)c1ccc2c(c1)N(CCCNc1cccc(Oc3ccccc3)c1)c1ccccc1S2 | > 20 | 0% | 0% | 5% |
| CN1CCCC(CN2c3ccccc3Sc3ccccc32)C1 (centres undefined) [MEPAZINE] | 17 (≈ 54.8 µM) | 88% | 0% | 29% |
| CN1CCN(CCCN2c3ccccc3Sc3ccc(C(F)(F)F)cc32)CC1 [TRIFLUOPERAZINE] | 7.6 (≈ 18.7 µM) |  |  |  |
| COc1ccc2c(c1)Sc1ccccc1N2CC1CCCN(C)C1 (centres undefined) | > 20 | 75% | 0% | 41% |
| CN1CCCC(CN2c3ccccc3Sc3cccnc32)C1 (centres undefined) | > 10 | 86% | 19% | 47% |
| CN1CCCC(CN2c3ccccc3Sc3cc(N4CCOCC4)ccc32)C1 (centres undefined) | > 2 | 59% | 0% | 7% |
| CN(C)CCCN1c2ccccc2Sc2ccc(Cl)cc21.Cl [CHLORPROMAZINE HYDROCHLORIDE] | 6 | 96% | 44% | 86% |
| FC(F)(F)c1ccc2c(c1)N(Cc1ccc(CN3CCN(c4ncccn4)CC3)cc1)c1ccccc1S2 | > 20 | 72% | 10% | 0% |
| FC(F)(F)c1ccc2c(c1)N(CCCNCc1ccccc1)c1ccccc1S2 | 4.2 (≈ 10.1 µM) | 97% | 61% | 85% |
| FC(F)(F)c1ccc2c(c1)N(Cc1ccc(CNc3ccccn3)cc1)c1ccccc1S2 | > 10 | 90% | 0% | 53% |
| FC(F)(F)c1ccc2c(c1)N(CCCNc1nccs1)c1ccccc1S2 | 14 (≈ 34.4 µM) | 95% | 54% | 81% |
| CN1CCCC(CN2c3ccccc3Sc3ccc(C(F)(F)F)cc32)C1 (centres undefined) | 7.2 (≈ 19 µM) | 87% | 5% | 56% |
| CSc1ccc2c(c1)Sc1ccccc1N2CC1CCCN(C)C1 (centres undefined) | 11.6 (≈ 32.5 µM) |  | 67% |  |

| SMILES | MIC [1] [µg/mL] | Activity [2] | Activity [3] | Activity [4] |
| --- | --- | --- | --- | --- |
| CN1CCN(CCCN2c3ccccc3Sc3ccc(C(F)(F)F)cc32)CC1 |  | 100% and 98% | 76% and 67% | 91% and 97% |
| FC(F)(F)c1ccc2c(c1)N(CCCNc1ccccn1)c1ccccc1S2 | 20 (≈ 49.8 µM) | 85% | 45% | 93% |
| CN1CCN(CCCN2c3ccccc3Sc3ccc(C(F)(F)F)cc32)CC1.Cl | 6 |  |  |  |
| FC(F)(F)c1ccc2c(c1)N(Cc1ccc(CNc3nccs3)cc1)c1ccccc1S2 | > 10 | 11% | 0% | 0% |
| CCN(CC)Cc1ccc(CN2c3ccccc3Sc3ccc(C(F)(F)F)cc32)cc1 | > 10 | 97% | 23% | 57% |
| CN1CCCC(CN2c3ccccc3Sc3cc(-c4ccccc4)ccc32)C1 (centres undefined) | 2.1 (≈ 5.43 µM) | 96% | 0% | 58% |
| OC1CCN(CCCN2c3ccccc3Sc3ccc(C(F)(F)F)cc32)C1 (centres undefined) | 11 (≈ 27.9 µM) | 74% | 62% | 95% |
| CC(CO)NCCCN1c2ccccc2Sc2ccc(C(F)(F)F)cc21 (centres undefined) | 4.6 (≈ 12 µM) | 100% | 58% | 91% |
| Cc1ccc2c(c1)Sc1ccccc1N2CC1CCCN(C)C1 (centres undefined) | 7.2 (≈ 22.2 µM) | 93% | 0% | 26% |
| OC1CCN(Cc2ccc(CN3c4ccccc4Sc4ccc(C(F)(F)F)cc43)cc2)C1 (centres undefined) | 8.4 (≈ 18.4 µM) | 79% | 0% | 65% |
| CN1CCCC(CN2c3ccccc3Sc3cc(Cl)ccc32)C1 (centres undefined) | 14.3 (≈ 41.5 µM) | 94% | 0% | 67% |
| CN1CCCC(CN2c3ccccc3Sc3ccc(-c4ccccc4)cc32)C1 (centres undefined) | 4.5 (≈ 11.6 µM) | 97% | 1% | 14% |
| CN1CCCC(CN2c3ccccc3Sc3cnccc32)C1 (centres undefined) | > 20 |  |  |  |
| FC(F)(F)c1ccc2c(c1)N(Cc1ccc(CN3c4ccccc4Sc4ccc(C(F)(F)F)cc43)cc1)c1ccccc1S2 | 2 (≈ 3.14 µM) | 40% | 0% | 0% |
| CN(Cc1ccccc1)Cc1ccc(CN2c3ccccc3Sc3ccc(C(F)(F)F)cc32)cc1 | > 20 | 66% | 4% | 0% |
| CCN(CC)CCCN1c2ccccc2Sc2ccc(C(F)(F)F)cc21 | 15 (≈ 39.4 µM) | 100% | 63% | 94% |
| FC(F)(F)c1ccc2c(c1)N(CCCN1c3ccccc3Sc3ccc(C(F)(F)F)cc31)c1ccccc1S2 | 2.3 (≈ 4 µM) | 48% | 67% | 83% |
| CC1CN(CCCN2c3ccccc3Sc3ccc(C(F)(F)F)cc32)CC(C)O1 (centres undefined) | > 20 | 99% | 98% | 30% |
| FC(F)(F)c1ccc2c(c1)N(CCCN1CCN(c3ncccn3)CC1)c1ccccc1S2 | 16 (≈ 33.9 µM) | 50% | 94% | 85% |
